In ChEMBL document CHEMBL5303573, “Mapping human microbiome drug metabolism by gut bacteria and their genes” (Nature, 2019):

Experiments:
[1] = The drug is tested on Collinsella intestinalis strain: DSM13280 for biotransformation. The drug concentrations were measured before and after a 12-h incubation by liquid-chromatography-coupled mass spectrometry (LC–MS); settings: 2 µM
[2] = The drug is tested on Bacteroides caccae strain: ATCC43185 for biotransformation. The drug concentrations were measured before and after a 12-h incubation by liquid-chromatography-coupled mass spectrometry (LC–MS); settings: 2 µM
[3] = The drug is tested on Bacteroides coprophilus strain: DSM18228 for biotransformation. The drug concentrations were measured before and after a 12-h incubation by liquid-chromatography-coupled mass spectrometry (LC–MS); settings: 2 µM
[4] = The drug is tested on Bacteroides fragilis strain: ATCC43859 for biotransformation. The drug concentrations were measured before and after a 12-h incubation by liquid-chromatography-coupled mass spectrometry (LC–MS); settings: 2 µM
[5] = The drug is tested on Bacteroides xylanisolvens strain: DSM18836 for biotransformation. The drug concentrations were measured before and after a 12-h incubation by liquid-chromatography-coupled mass spectrometry (LC–MS); settings: 2 µM
[6] = The drug is tested on Parabacteroides merdae strain: ATCC43184 for biotransformation. The drug concentrations were measured before and after a 12-h incubation by liquid-chromatography-coupled mass spectrometry (LC–MS); settings: 2 µM
[7] = The drug is tested on Blautia luti strain: DSM14534 for biotransformation. The drug concentrations were measured before and after a 12-h incubation by liquid-chromatography-coupled mass spectrometry (LC–MS); assay type: ADME; parameters: dose 2 uM, timepoint 0 vs 12 hours; settings: 2 µM
[8] = The drug is tested on Clostridium ramosum strain: DSM1402 for biotransformation. The drug concentrations were measured before and after a 12-h incubation by liquid-chromatography-coupled mass spectrometry (LC–MS); settings: thomasclavelia ramosa, 2 µM
[9] = The drug is tested on Clostridium scindens strain: ATCC35704 for biotransformation. The drug concentrations were measured before and after a 12-h incubation by liquid-chromatography-coupled mass spectrometry (LC–MS); settings: 2 µM
[10] = The drug is tested on Clostridium sporogenes strain: ATCC15579 for biotransformation. The drug concentrations were measured before and after a 12-h incubation by liquid-chromatography-coupled mass spectrometry (LC–MS); settings: 2 µM
[11] = The drug is tested on Enterococcus faecalis strain: V583 for biotransformation. The drug concentrations were measured before and after a 12-h incubation by liquid-chromatography-coupled mass spectrometry (LC–MS); settings: 2 µM
[12] = The drug is tested on Providencia rettgeri strain: DSM1131 for biotransformation. The drug concentrations were measured before and after a 12-h incubation by liquid-chromatography-coupled mass spectrometry (LC–MS); assay type: ADME; parameters: dose 2 uM, timepoint 0 vs 12 hours; settings: 2 µM
[13] = bifidobacterium adolescentis, 12 h, 2 µM
Description: The drug is tested on Bifidobacterium adolescentis strain: ATCC 15703 for biotransformation. The drug concentrations were measured before and after a 12-h incubation by liquid-chromatography-coupled mass spectrometry (LC–MS)

[14] = bacteroides eggerthii, 12 h, 2 µM
Description: The drug is tested on Bacteroides eggerthii strain: DSM20697 for biotransformation. The drug concentrations were measured before and after a 12-h incubation by liquid-chromatography-coupled mass spectrometry (LC–MS)

[15] = bacteroides intestinalis, 12 h, 2 µM
Description: The drug is tested on Bacteroides intestinalis strain: DSM17393 for biotransformation. The drug concentrations were measured before and after a 12-h incubation by liquid-chromatography-coupled mass spectrometry (LC–MS)

[16] = bacteroides thetaiotaomicron, 12 h, 2 µM
Description: The drug is tested on Bacteroides thetaiotaomicron strain: VPI-5482 for biotransformation. The drug concentrations were measured before and after a 12-h incubation by liquid-chromatography-coupled mass spectrometry (LC–MS)

[17] = bacteroides thetaiotaomicron, 12 h, 2 µM; remark: listed apart in the source
Description: The drug is tested on Bacteroides thetaiotaomicron strain: 3731 for biotransformation. The drug concentrations were measured before and after a 12-h incubation by liquid-chromatography-coupled mass spectrometry (LC–MS)

[18] = parabacteroides johnsonii, 12 h, 2 µM
Description: The drug is tested on Parabacteroides johnsonii strain: DSM18315 for biotransformation. The drug concentrations were measured before and after a 12-h incubation by liquid-chromatography-coupled mass spectrometry (LC–MS)

[19] = limosilactobacillus reuteri cf48-3a, 12 h, 2 µM
Description: The drug is tested on Lactobacillus reuteri CF48-3A strain: BEI HM-102 for biotransformation. The drug concentrations were measured before and after a 12-h incubation by liquid-chromatography-coupled mass spectrometry (LC–MS)

[20] = victivallis vadensis, 12 h, 2 µM
Description: The drug is tested on Victivallis vadensis strain: ATCC BAA-548 for biotransformation. The drug concentrations were measured before and after a 12-h incubation by liquid-chromatography-coupled mass spectrometry (LC–MS)

Row | Bacterial Biotransformation [1] | Bacterial Biotransformation [2] | Bacterial Biotransformation [3] | Bacterial Biotransformation [4] | Bacterial Biotransformation [5] | Bacterial Biotransformation [6] | Bacterial Biotransformation [7] | Bacterial Biotransformation [8] | Bacterial Biotransformation [9] | Bacterial Biotransformation [10] | Bacterial Biotransformation [11] | Bacterial Biotransformation [12] | Bacterial Biotransformation [13] | Bacterial Biotransformation [14] | Bacterial Biotransformation [15] | Bacterial Biotransformation [16] | Bacterial Biotransformation [17] | Bacterial Biotransformation [18] | Bacterial Biotransformation [19] | Bacterial Biotransformation [20] | Compound
1 | Compound metabolized | Compound metabolized | Compound metabolized | Compound metabolized | Compound metabolized | Compound metabolized | Compound metabolized | Compound metabolized | Compound metabolized | Compound metabolized | Compound metabolized | Compound metabolized | Compound metabolized | Compound metabolized | Compound metabolized | Compound metabolized | Compound metabolized | Compound metabolized | Compound metabolized | Compound metabolized | CC(=O)Nc1ccc(OC(C)=O)cc1 [DIACETAMATE]
2 | Compound metabolized | Compound metabolized | Compound metabolized | Compound metabolized | Compound metabolized | Compound metabolized | Compound metabolized | Compound metabolized | Compound metabolized | Compound metabolized | Compound metabolized | Compound metabolized | Compound metabolized | Compound metabolized | Compound metabolized | Compound metabolized | Compound metabolized | Compound metabolized | Compound metabolized | Compound metabolized | CC(=O)Oc1ccc(C(c2ccc(OC(C)=O)cc2)c2ccccn2)cc1 [BISACODYL]
3 | Compound metabolized | Compound metabolized | Compound metabolized | Compound NOT metabolized | Compound metabolized | Compound metabolized | Compound metabolized | Compound metabolized | Compound metabolized | Compound metabolized | Compound metabolized | Compound metabolized | Compound metabolized | Compound metabolized | Compound metabolized | Compound metabolized | Compound metabolized | Compound metabolized | Compound metabolized | Compound metabolized | CCOc1ccc2nc(S(N)(=O)=O)sc2c1 [ETHOXZOLAMIDE]

Row | Compound | Bacterial Biotransformation [1] | Bacterial Biotransformation [2] | Bacterial Biotransformation [3] | Bacterial Biotransformation [4] | Bacterial Biotransformation [5] | Bacterial Biotransformation [6] | Bacterial Biotransformation [7] | Bacterial Biotransformation [8] | Bacterial Biotransformation [9] | Bacterial Biotransformation [10] | Bacterial Biotransformation [11] | Bacterial Biotransformation [12] | Bacterial Biotransformation [13] | Bacterial Biotransformation [14] | Bacterial Biotransformation [15] | Bacterial Biotransformation [16] | Bacterial Biotransformation [17] | Bacterial Biotransformation [18] | Bacterial Biotransformation [19] | Bacterial Biotransformation [20]
4 | C[C@@H]1CC[C@H]2[C@@H](C)C(=O)O[C@@H]3O[C@@]4(C)CC[C@@H]1[C@]32OO4 [ARTEMISININ] | Compound metabolized | Compound metabolized | Compound metabolized | Compound metabolized | Compound metabolized | Compound metabolized | Compound metabolized | Compound metabolized | Compound metabolized | Compound metabolized | Compound metabolized | Compound metabolized | Compound metabolized | Compound metabolized | Compound metabolized | Compound metabolized | Compound metabolized | Compound metabolized | Compound metabolized | Compound metabolized
